# According to patent publication US20240100001A1, “DENATONIUM SALT FOR USE IN PREVENTING, PREVENTING PROGRESSION AND TREATING FATTY LIVER DISEASES” (AARDVARK THERAPEUTICS INC., priority 2021, published 2024):
# Columns and labels:
# [1] = tested on: AMLN-diet induced NASH mice; assay type: in vivo
# Procedure: This example provides the results obtained from a second in vivo mouse model of fatty liver disease treatment to investigate the therapeutic effect of DA on the treatment of NASH versus positive control semaglutide (a GLP-1 agonist marketed drug for lowering HbA1c). The differences in this study, from the preventive model in Example 1, were that a higher dose of DA (75 mg/kg) was used versus 30 mg/kg, dosing was twice daily (BID versus QD in the Example 1 study), a positive control semaglutide was used, a different mouse strain (B6 mice) was used, and the animals were already adults (23 weeks old in Example 2 versus 4 weeks old in Example 1) when the study began because the animals were already fed an AMLN diet for 17 weeks prior to the study being initiated. The study dose began at 75 mg/kg BID.
# The study included 3 groups of 10 mice each, (A) vehicle control with distilled water by gavage BID, (B) DA by gavage BID, and (C) semaglutide […] sc QD. Body weights and changes were measured 3× per week. Serum metabolic markers (blood glucose, blood insulin, HbA1c, HDL, LDL triglycerides and bile acids) were measured at beginning of dosing (baseline) and end of study. At the end of the study, histopathology of liver samples and serum levels of inflammatory biomarkers (IL-6, TNFα, CK-18 and TGF-β) were evaluated. Histopathology was performed blindly with a scoring scale according to NAFLD Activity Score and Fibrosis Score according to Table 4.
# [2] = 23.1 mg/kg BID DA; cited from earlier work
# [3] = tested on: AMLN diet-induced NASH mice; assay: Example 1: one-year DA dosing of AMLN diet-induced NASH mice (prevention study); assay type: in vivo
# Procedure: This example provides the results of a 52 week study of lower dose DA (30 mg/kg per day QD by gavage) in mice where NASH conditions were induced by diet. The data for an animal-induced NASH of such a long duration (48-52 weeks) can be interpreted to support methods for preventing fatty liver diseases, including NASH, and methods of slowing progression of fatty liver diseases, including NASH. Male C57BL/6 mice (4 weeks old at study start) were maintained on a high-fat “Western diet” (AMLN diet) (DIO-NASH) (D09100301, Research Diet, USA) (40% fat (18% trans-fat), 40% carbohydrates (20% fructose) and 2% cholesterol, 40 kcal % fat, 20 kcal % fructose, and 2% cholesterol) following arrival, inducing non-alcoholic steatohepatitis (NASH). Following acclimation, Groups 1 and 2 (n=22 each) were dosed by intragastric oral gavage (PO) with (respectively) vehicle (distilled water) or denatonium acetate (DA) at 30 mg/kg. Doses were administered once daily (QD) for a full year (through Day 366) at dose volumes of 1 mL/kg. Body weights and clinical observations were monitored throughout the study. Blood was collected from fasted animals at baseline (Day −1) and regularly during the study (Weeks 4, 12, 24, and 48), processed to serum or plasma, and evaluated for metabolic parameters [glucose, insulin, hemoglobin A1c (HbA1c), and glucagon-like peptides 1 and 2 (GLP-1 and -2)], selected serum chemistry parameters [Ala aminotransferase (ALT), Asp aminotransferase (AST), albumin (ALB), and total bile acids (BA)], and multiple cytokines (32 total). After 52 weeks of QD dosing, fasted animals were bled and euthanized, and livers were collected and weighed. Terminal serum samples were assessed for low- and high-density cholesterol (LDL and HDL, respectively) and triglycerides (TGA); liver was assessed for total cholesterol (TC), TGA, and free fatty acids (FFA).
# Male C57BL/6 mice (n=44) were purchased from Taconic Biosciences, Inc. (Rensselaer, NY), as 4-week-old animals. Following arrival, animals were weighed using an electronic balance (Ohaus SCOUT® PRO, Parsippany, NJ), given a clinical examination to ensure that the mice were in good condition, and group-housed (up to 4 per cage). The animals were maintained in HEPA-filtered static cages using SaniChip bedding 7090A (Harlan Teklad, Hayward, CA). Animal room controls were set to maintain temperature and relative humidity at 22° C.±4° C. and 50% 20%, respectively. Housing rooms were on a 12:12 light/dark cycle. Animals were acclimated on site for at least 3 days prior to entry onto the study. Following arrival and throughout the study, mice were provided with ad libitum access to water (via water bottles) and (except as noted for fasting) to a high-fat “Western diet” (AMLN diet, No. D09100301; Research Diets, New Brunswick, NJ) containing 40 kcal % fat, 20 kcal % fructose, and 2% cholesterol.
# DA was formulated at 30 mg/mL in DW. Solid DA was weighed and added to the appropriate volume of DW; the solution was mixed well and inspected visually to ensure that there was no precipitate and to verify that the test article was completely solubilized. The DA dosing solution was prepared freshly each week and stored refrigerated at 4° C. between use in daily dose administrations. On Day −1 (i.e., one day before the start of dosing); and on Weeks 4, 12, 24, and 48 (i.e., after one, 3, 6, and 12 months of dosing), blood and fecal samples were collected from fasted animals. • Fecal samples (4 pellets per cage of 3-4 mice) were collected directly collected from the floor of each cage, divided into two aliquots, and stored at −80° C. for future microbiota and microbiome analysis. Results of those analyses are not included in this report. • Blood (100 μL/animal) was collected from each animal via the submandibular route. All blood samples were assessed for blood glucose levels and then processed to both serum and plasma. […]
# [4] = DA 75 then 50 mg/kg BID, 12 weeks
# [5] = 30 mg/kg PO QD, one year (48 weeks in Table 2), blinded histopathologic review
# [6] = 30 mg/kg PO QD, only at Week 24
# [7] = after one year of QD dosing, 30 mg/kg
# [8] = after one year of daily dosing, 30 mg/kg
compound,measurement,setting,value
"CC(=O)[O-].CC[N+](CC)(CC(=O)Nc1c(C)cccc1C)Cc1ccccc1 [DA, denatonium acetate]",body weight,[1]; [4],remarkable effect
same,body weight change,[1]; [4],remarkable effect
same,liver weight vs vehicle,[1]; [4],significantly decreased
same,liver/body weight ratio vs vehicle,[1]; [4],significantly decreased
same,NAFLD Activity Score,"[1]; blinded histopathologic review, DA 75 then 50 mg/kg BID, 12 weeks",significantly improved
same,ALT levels vs vehicle control,[1]; end of the study,significantly decreased
same,AST levels vs vehicle control,[1]; end of the study,significantly decreased
same,CK-18 levels vs vehicle control,[1]; end of the study,significantly decreased
same,high density lipoproteins (HDL),[1]; end of the study,significantly decreased
same,low density lipoproteins (LDL),[1]; end of the study,significantly decreased
same,triglycerides (TG),[1]; end of the study,significantly decreased
same,weight gain,[2],significant reduction
same,levels of the other (n=24) assessed cytokines vs vehicle,[3]; 30 mg/kg PO QD,Significant treatment-related differences were not seen
same,animals found dead during the study,"[3]; 30 mg/kg PO QD, n=22, Weeks 12 and 49, unclear if test article related",two
same,fibrosis on histopathology,[3]; [5],improved/abrogated
same,steatosis on histopathology,[3]; [5],significantly improved
same,total fibrosis score,"[3]; 30 mg/kg PO QD, one year, 1.52 vs. 0.58, p<0.0001",0.58
same,relative body weights vs vehicle,"[3]; 30 mg/kg PO QD, Day 4",lower
same,IP-10 blood level vs vehicle,"[3]; 30 mg/kg PO QD, Week 4 only",Statistically significant attenuation
same,MIP-1B blood level vs vehicle,"[3]; 30 mg/kg PO QD, Week 4 only",Statistically significant attenuation
same,IL-13 blood level vs vehicle,"[3]; 30 mg/kg PO QD, Week 12 only",Statistically significant attenuation
same,MIP-1a blood level vs vehicle,"[3]; 30 mg/kg PO QD, Week 24 only",Statistically significant attenuation
same,Serum BA levels vs vehicle,"[3]; 30 mg/kg PO QD, Week 24 only",significantly attenuated
same,fasting blood glucose levels vs vehicle,"[3]; 30 mg/kg PO QD, Week 24 only",significantly lower
same,GLP-2 levels vs vehicle,"[3]; 30 mg/kg PO QD, Week 48",did not differ significantly
same,IL-6 blood level vs vehicle,"[3]; 30 mg/kg PO QD, Week 48 only",Statistically significant attenuation
same,IL-9 blood level vs vehicle,"[3]; 30 mg/kg PO QD, Week 48 only",Statistically significant attenuation
same,KC blood level vs vehicle,"[3]; 30 mg/kg PO QD, Week 48 only",Statistically significant attenuation
same,insulin levels vs vehicle,"[3]; 30 mg/kg PO QD, Weeks 4 and 12, not subsequently",significantly elevated
same,MIG blood level vs vehicle,"[3]; 30 mg/kg PO QD, Weeks 4 and 48 only",Statistically significant attenuation
same,HbA1c levels vs vehicle,"[3]; 30 mg/kg PO QD, Weeks 12 and 48, not Week 24",significantly attenuated
same,Serum ALT activity levels vs vehicle,"[3]; 30 mg/kg PO QD, Weeks 24 and 48, not earlier",significantly attenuated
same,Serum ALB levels vs vehicle,"[3]; 30 mg/kg PO QD, any assessed time point",did not differ significantly
same,body weight increase from baseline,"[3]; 30 mg/kg PO QD, during the first 5 months (both groups)",~150%
same,body weights (absolute or relative) vs vehicle,"[3]; 30 mg/kg PO QD, during the study except Day 4 relative",did not differ in a statistically significant manner
same,body weights mean increase from baseline,"[3]; 30 mg/kg PO QD, during the year-long study (both groups)",approximately 200%
same,GLP-1 levels vs vehicle,[3]; [6],significantly attenuated
same,Serum AST activity levels vs vehicle,[3]; [6],significantly attenuated
same,Lowered serum levels of ALT,"[3]; 30 mg/kg, PO, QD for 48 weeks","ALT (−43%),"
same,Lowered serum levels of AST,"[3]; 30 mg/kg, PO, QD for 48 weeks","AST (−9.5%),"
same,Lowered serum levels of HbA1c,"[3]; 30 mg/kg, PO, QD for 48 weeks","HbA1c (−6.7%),"
same,Lowered serum levels of bile acid,"[3]; 30 mg/kg, PO, QD for 48 weeks",acid (−16.2%)
same,Lowered serum levels of fasting glucose,"[3]; 30 mg/kg, PO, QD for 48 weeks","glucose (−9%),"
same,decreased liver weight of animals,"[3]; 30 mg/kg, PO, QD for 48 weeks",(by 10%)
same,serum levels of GLP-1 (Table 2 summary),"[3]; 30 mg/kg, PO, QD for 48 weeks",Increased
same,serum levels of GLP-2 (Table 2 summary),"[3]; 30 mg/kg, PO, QD for 48 weeks",Increased
same,serum levels of inflammatory markers,"[3]; 30 mg/kg, PO, QD for 48 weeks",Lowered serum
same,absolute liver weight at necropsy vs vehicle,[3]; [7],not absolute liver weight was attenuated
same,relative (body weight-normalized) liver weight at necropsy vs vehicle,[3]; [7],attenuated
same,Liver TGA levels vs vehicle,[3]; [8],significantly attenuated
same,Serum TGA levels vs vehicle,[3]; [8],significantly attenuated
same,liver FFA levels vs vehicle,[3]; [8],"not those of TC or FFA, were significantly attenuated"
same,liver TC levels vs vehicle,[3]; [8],"not those of TC or FFA, were significantly attenuated"
same,serum HDL levels vs vehicle,[3]; [8],"not those of HDL or LDL, were significantly attenuated"
same,serum LDL levels vs vehicle,[3]; [8],"not those of HDL or LDL, were significantly attenuated"
same,"adverse effects on survival, body weight, or clinical signs","[3]; mouse, in vivo, po, 30 mg/kg",did not appear to have adverse effects
